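Five concentrations, 48 hours, 96-well plates. GI50: concentration for 50% inhibition of growth. TGI: concentration producing complete growth inhibition.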
What was measured:
Assay in all cases: NCI anticancer screen, dose series, 48 h
OVCAR-4 ovarian = system: OVCAR-4 ovarian
HCT-15 colon = system: HCT-15 colon
MOLT-4 leukemia = system: MOLT-4 leukemia
HCT-116 colon = system: HCT-116 colon
NCI-H522 lung = system: NCI-H522 lung
COLO 205 colon = system: COLO 205 colon
CAKI-1 renal = system: CAKI-1 renal
MALME-3M melanoma = system: MALME-3M melanoma
DU-145 prostate = system: DU-145 prostate
786-0 renal = system: 786-0 renal
SR leukemia = system: SR leukemia
T-47D breast = system: T-47D breast
SK-OV-3 ovarian = system: SK-OV-3 ovarian
K-562 leukemia = system: K-562 leukemia
RPMI-8226 leukemia = system: RPMI-8226 leukemia
A549 NSCLC = system: A549 NSCLC
SF-539 CNS = system: SF-539 CNS
NCI-H460 lung = system: NCI-H460 lung
LOX IMVI melanoma = system: LOX IMVI melanoma
SK-MEL-28 melanoma = system: SK-MEL-28 melanoma
SNB-19 CNS = system: SNB-19 CNS
MCF7 breast = system: MCF7 breast
MDA-MB-435 = system: MDA-MB-435
ACHN renal = system: ACHN renal
SN12C renal = system: SN12C renal
BT-549 breast = system: BT-549 breast
HT29 colon = system: HT29 colon
SK-MEL-5 melanoma = system: SK-MEL-5 melanoma
SW-620 colon = system: SW-620 colon
HOP-92 NSCLC = system: HOP-92 NSCLC
UACC-62 melanoma = system: UACC-62 melanoma
OVCAR-3 ovarian = system: OVCAR-3 ovarian
NCI-H226 lung = system: NCI-H226 lung
HOP-62 NSCLC = system: HOP-62 NSCLC
HS 578T breast = system: HS 578T breast
SK-MEL-2 melanoma = system: SK-MEL-2 melanoma
SNB-75 CNS = system: SNB-75 CNS
IGROV1 ovarian = system: IGROV1 ovarian
CCRF-CEM leukemia = system: CCRF-CEM leukemia
MDA-MB-231 breast = system: MDA-MB-231 breast
OVCAR-8 ovarian = system: OVCAR-8 ovarian
SF-268 CNS = system: SF-268 CNS
M14 melanoma = system: M14 melanoma
NCI/ADR-RES ovarian = system: NCI/ADR-RES ovarian
PC-3 prostate = system: PC-3 prostate
UO-31 renal = system: UO-31 renal
OVCAR-5 ovarian = system: OVCAR-5 ovarian
TK-10 renal = system: TK-10 renal
HCC-2998 colon = system: HCC-2998 colon
A498 renal = system: A498 renal
RXF 393 renal = system: RXF 393 renal
KM12 colon = system: KM12 colon
NCI-H23 lung = system: NCI-H23 lung

`Cc1ccc2cc3c(cc(C)c4ccccc43)c3c2c1CC3` was tested, and the GI50 (OVCAR-4 ovarian) was greater than 100 µM, the TGI (OVCAR-4 ovarian) was greater than 100 µM and the GI50 (HCT-15 colon) was greater than 100 µM. It also gave a TGI (HCT-15 colon) greater than 100 µM, a GI50 (MOLT-4 leukemia) greater than 100 µM and a TGI (MOLT-4 leukemia) greater than 100 µM. It also gave a GI50 (HCT-116 colon) greater than 100 µM, a TGI (HCT-116 colon) greater than 100 µM and a GI50 (NCI-H522 lung) greater than 100 µM. The TGI (NCI-H522 lung) was greater than 100 µM, the GI50 (COLO 205 colon) was greater than 100 µM and the TGI (COLO 205 colon) was greater than 100 µM. It also gave a GI50 (CAKI-1 renal) greater than 100 µM, a TGI (CAKI-1 renal) greater than 100 µM and a GI50 (MALME-3M melanoma) greater than 100 µM. The TGI (MALME-3M melanoma) was greater than 100 µM, the GI50 (DU-145 prostate) was greater than 100 µM and the TGI (DU-145 prostate) was greater than 100 µM. It also gave a GI50 (786-0 renal) greater than 100 µM, a TGI (786-0 renal) greater than 100 µM and a GI50 (SR leukemia) of 87.5 µM. For the same compound, the TGI (SR leukemia) was greater than 100 µM, the GI50 (T-47D breast) was greater than 100 µM and the TGI (T-47D breast) was greater than 100 µM. For the same compound, the GI50 (SK-OV-3 ovarian) was greater than 100 µM, the TGI (SK-OV-3 ovarian) was greater than 100 µM and the GI50 (K-562 leukemia) was greater than 100 µM. It also gave a TGI (K-562 leukemia) greater than 100 µM, a GI50 (RPMI-8226 leukemia) greater than 100 µM and a TGI (RPMI-8226 leukemia) greater than 100 µM. The GI50 (A549 NSCLC) was greater than 100 µM, the TGI (A549 NSCLC) was greater than 100 µM and the GI50 (SF-539 CNS) was greater than 100 µM. The TGI (SF-539 CNS) was greater than 100 µM, the GI50 (NCI-H460 lung) was greater than 100 µM and the TGI (NCI-H460 lung) was greater than 100 µM. For the same compound, the GI50 (LOX IMVI melanoma) was greater than 100 µM, the TGI (LOX IMVI melanoma) was greater than 100 µM and the GI50 (SK-MEL-28 melanoma) was greater than 100 µM. The TGI (SK-MEL-28 melanoma) was greater than 100 µM, the GI50 (SNB-19 CNS) was greater than 100 µM and the TGI (SNB-19 CNS) was greater than 100 µM. It also gave a GI50 (MCF7 breast) of 35.2 µM, a TGI (MCF7 breast) greater than 100 µM and a GI50 (MDA-MB-435) greater than 100 µM. The TGI (MDA-MB-435) was greater than 100 µM, the GI50 (ACHN renal) was 60.1 µM and the TGI (ACHN renal) was greater than 100 µM. For the same compound, the GI50 (SN12C renal) was greater than 100 µM, the TGI (SN12C renal) was greater than 100 µM and the GI50 (BT-549 breast) was greater than 100 µM. The TGI (BT-549 breast) was greater than 100 µM, the GI50 (HT29 colon) was greater than 100 µM and the TGI (HT29 colon) was greater than 100 µM. For the same compound, the GI50 (SK-MEL-5 melanoma) was greater than 100 µM, the TGI (SK-MEL-5 melanoma) was greater than 100 µM and the GI50 (SW-620 colon) was greater than 100 µM. The TGI (SW-620 colon) was greater than 100 µM, the GI50 (HOP-92 NSCLC) was 17.4 µM and the TGI (HOP-92 NSCLC) was 82.3 µM. It also gave a GI50 (UACC-62 melanoma) greater than 100 µM, a TGI (UACC-62 melanoma) greater than 100 µM and a GI50 (OVCAR-3 ovarian) greater than 100 µM. The TGI (OVCAR-3 ovarian) was greater than 100 µM, the GI50 (NCI-H226 lung) was greater than 100 µM and the TGI (NCI-H226 lung) was greater than 100 µM. The GI50 (HOP-62 NSCLC) was 58.8 µM, the TGI (HOP-62 NSCLC) was greater than 100 µM and the GI50 (HS 578T breast) was 89.1 µM. It also gave a TGI (HS 578T breast) greater than 100 µM, a GI50 (SK-MEL-2 melanoma) greater than 100 µM and a TGI (SK-MEL-2 melanoma) greater than 100 µM. The GI50 (SNB-75 CNS) was 26.7 µM, the TGI (SNB-75 CNS) was greater than 100 µM and the GI50 (IGROV1 ovarian) was greater than 100 µM. The TGI (IGROV1 ovarian) was greater than 100 µM, the GI50 (CCRF-CEM leukemia) was greater than 100 µM and the TGI (CCRF-CEM leukemia) was greater than 100 µM. The GI50 (MDA-MB-231 breast) was 48.2 µM, the TGI (MDA-MB-231 breast) was greater than 100 µM and the GI50 (OVCAR-8 ovarian) was greater than 100 µM. For the same compound, the TGI (OVCAR-8 ovarian) was greater than 100 µM, the GI50 (SF-268 CNS) was greater than 100 µM and the TGI (SF-268 CNS) was greater than 100 µM. The GI50 (M14 melanoma) was greater than 100 µM, the TGI (M14 melanoma) was greater than 100 µM and the GI50 (NCI/ADR-RES ovarian) was greater than 100 µM. The TGI (NCI/ADR-RES ovarian) was greater than 100 µM, the GI50 (PC-3 prostate) was greater than 100 µM and the TGI (PC-3 prostate) was greater than 100 µM. It also gave a GI50 (UO-31 renal) greater than 100 µM, a TGI (UO-31 renal) greater than 100 µM and a GI50 (OVCAR-5 ovarian) greater than 100 µM. For the same compound, the TGI (OVCAR-5 ovarian) was greater than 100 µM, the GI50 (TK-10 renal) was 65.6 µM and the TGI (TK-10 renal) was greater than 100 µM. The GI50 (HCC-2998 colon) was greater than 100 µM, the TGI (HCC-2998 colon) was greater than 100 µM and the GI50 (A498 renal) was 76 µM. The TGI (A498 renal) was greater than 100 µM, the GI50 (RXF 393 renal) was 57.2 µM and the TGI (RXF 393 renal) was greater than 100 µM. The GI50 (KM12 colon) was greater than 100 µM, the TGI (KM12 colon) was greater than 100 µM and the GI50 (NCI-H23 lung) was greater than 100 µM. The TGI (NCI-H23 lung) was greater than 100 µM.

Source: PubChem BioAssay (NCI)
